This is an account of results in the supplement of paper PMC11208160.
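Further: IS621 bridge recombinase in Escherichia coli cells against a fixed T5 target plasmid.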

This data set can be described thus: recombinant UMI read abundance after kanamycin selection (control-corrected) (log10(CPM+1)); higher = more efficient recombination; extreme values may be limits of the assay; sequences stand for … in AGTGCAGAGAAAATCGGCCAGTTTTCTCTGCCTGCAGTCCGCATGCCGTGGGACCCCTTGGGTTCTAACCTGTTGCCTAGATTTATGCAGCGGACTGCCTTTCTCCCAAAGTGATAAACCGG…AGGTTGGTTTCACT; site = the 11-nt donor. In a few lines:
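Values are reported as log10(CPM+1), obtained by converting sequencing counts to CPM, averaging replicates and scaling by control-derived factors. The counts came from recombinant UMIs amplified by PCR across the donor–target junction. These UMIs came from a pooled Escherichia coli screen of donor and donor-binding-loop pairs for the IS621 bridge recombinase, plated with IPTG (0.07 mM) plus kanamycin or left unselected, in two replicates each.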
For the sequence “CGGGAGTCATGGACCGGTTTTCCCGGTAATCCGTATTTGGC (site CGGGAGTCTGA)”, the “recombinant UMI read abundance (log10)” value was 1.59. For the sequence “CGGGAGTCATGGACCGGTTTTCCCGGTAATCCGTATTTGGC (site CGGGAGTCTGC)”, the “recombinant UMI read abundance (log10)” value came out at 2.76. As for “CGGGAGTCATGGACCGGTTTTCCCGGTAATCCGTATTTGGC (site CGGGAGTCTGG)”, the figure is 0.911; as for “CGGGAGTCATGGACCGGTTTTCCCGGTAATCCGTATTTGGC (site CGGGAGTCTGT)”, 1.96. As for “CGGGATCCATGGACCGGTTTTCCCGGTAATCCGTATTTGCT (site CGGAATCCTAA)”, the figure is 0.0224; as for “CGGGATCCATGGACCGGTTTTCCCGGTAATCCGTATTTGCT (site CGGGATCCTAG)”, 0; as for “CGGGCACCATGGACCGGTTTTCCCGGTAATCCGTATTTGCA (site AGGGCACCTTG)”, 0.0117. Turning to “CGGGCACCATGGACCGGTTTTCCCGGTAATCCGTATTTGCA (site CGGGCACCTTG)”, the “recombinant UMI read abundance (log10)” value amounted to 0.

“CGGGCACCATGGACCGGTTTTCCCGGTAATCCGTATTTGCA (site GGGGCACCTTG)”: the “recombinant UMI read abundance (log10)” value turned out to be 0.00963. As for “CGGGCACCATGGACCGGTTTTCCCGGTAATCCGTATTTGCA (site TGGGCACCTTG)”, the figure is 0. Regarding “CGGGGACCATGGACCGGTTTTCCCGGTAATCCGTATTTGAT (site CGGGAACCTAT)”, the “recombinant UMI read abundance (log10)” value was determined as 0. For the sequence “CGGGGACCATGGACCGGTTTTCCCGGTAATCCGTATTTGAT (site CGGGCACCTAT)”, the “recombinant UMI read abundance (log10)” value amounted to 0.00825. As for “CGGGGACCATGGACCGGTTTTCCCGGTAATCCGTATTTGAT (site CGGGGACCTAT)”, the figure is 0; as for “CGGGGACCATGGACCGGTTTTCCCGGTAATCCGTATTTGAT (site CGGGTACCTAT)”, 0; as for “CGGGGACCATGGACCGGTTTTCCCGGTAATCCGTATTTGGG (site CGAGGACCTCC)”, 0.0137.

For the sequence “CGGGGACCATGGACCGGTTTTCCCGGTAATCCGTATTTGGG (site CGCGGACCTCC)”, the “recombinant UMI read abundance (log10)” value amounted to 0.0363. As for “CGGGGACCATGGACCGGTTTTCCCGGTAATCCGTATTTGGG (site CGGGGACCTCC)”, the figure is 0.0134; as for “CGGGGACCATGGACCGGTTTTCCCGGTAATCCGTATTTGGG (site CGTGGACCTCC)”, 0.00366.

With “CGGGGCGCATGGACCGGTTTTCCCGGTAATCCGTATTTGAA (site CGGGGCGCTTT)”, the “recombinant UMI read abundance (log10)” value stood at 1.26.

As to “CGGGGCGCATGGACCGGTTTTCCCGGTAATCCGTATTTGGC (site CGGGGCGCTGC)”, the “recombinant UMI read abundance (log10)” value is 3.06. For “CGGGGCTCATGGACCGGTTTTCCCGGTAATCCGTATTTGCA (site CGGGGCTCTTG)”, the “recombinant UMI read abundance (log10)” value was 2.79. With “CGGGGTCCATGGACCGGTTTTCCCGGTAATCCGTATTTGAT (site CGGGGTCCTAT)” the figure was 0. With “CGGGTTGCATGGACCGGTTTTCCCGGTAATCCGTATTTGGT (site CGGGTTGCTAC)” the figure was 1.77. With “CGGTACCCATGGACCGGTTTTCCCGGTAATCCGTATTTGAG (site CGGTACCCTCT)” the figure was 0.188; with “CGGTCACCATGGACCGGTTTTCCCGGTAATCCGTATTTGTA (site CGGTCACCTTA)”, 0.

Regarding “CGGTCATCATGGACCGGTTTTCCCGGTAATCCGTATTTGCA (site CGATCATCTAG)”, the “recombinant UMI read abundance (log10)” value was found to be 0.01. On to “CGGTCATCATGGACCGGTTTTCCCGGTAATCCGTATTTGCA (site CGGTCATCTTG)”, for which the “recombinant UMI read abundance (log10)” value amounted to 0.39. As for “CGGTCCTCATGGACCGGTTTTCCCGGTAATCCGTATTTGCA (site CGGTCCTCTTG)”, the figure is 0.

Consider “CGGTCTGCATGGACCGGTTTTCCCGGTAATCCGTATTTGAG (site CGGTCTGCTCT)”, for which the “recombinant UMI read abundance (log10)” value was found to be 0.251.

For “CGGTTGCCATGGACCGGTTTTCCCGGTAATCCGTATTTGGC (site CGGTTGCCTGC)”, the “recombinant UMI read abundance (log10)” value came out at 0. With “CGTAATCCATGGACCGGTTTTCCCGGTAATCCGTATTTGAT (site CGGAATCCTAA)” the figure was 0; with “CGTAATCCATGGACCGGTTTTCCCGGTAATCCGTATTTGAT (site CGTAATCCTAT)”, 0.697. With “CGTAATCCATGGACCGGTTTTCCCGGTAATCCGTATTTGTC (site CGGAATCCTAA)” the figure was 0. As for “CGTAATCCATGGACCGGTTTTCCCGGTAATCCGTATTTGTC (site CGTAATCCTGA)”, the figure is 1.47; as for “CGTACACCATGGACCGGTTTTCCCGGTAATCCGTATTTGAC (site AGTACACCTGT)”, 0. Turning to “CGTACACCATGGACCGGTTTTCCCGGTAATCCGTATTTGAC (site CGTACACCTGT)”, the “recombinant UMI read abundance (log10)” value was 0.

Consider “CGTACACCATGGACCGGTTTTCCCGGTAATCCGTATTTGAC (site GGTACACCTGT)”, for which the “recombinant UMI read abundance (log10)” value stood at 0. With “CGTACACCATGGACCGGTTTTCCCGGTAATCCGTATTTGAC (site TGTACACCTGT)” the figure was 0. “CGTACCGCATGGACCGGTTTTCCCGGTAATCCGTATTTGTC (site CGTACCGCTGA)”: the “recombinant UMI read abundance (log10)” value came to 2.78. With “CGTAGATCATGGACCGGTTTTCCCGGTAATCCGTATTTGCA (site CGTAGATCTTG)” the figure was 2.44; with “CGTAGTCCATGGACCGGTTTTCCCGGTAATCCGTATTTGTT (site CGGAATCCTAA)”, 0. With “CGTAGTCCATGGACCGGTTTTCCCGGTAATCCGTATTTGTT (site CGTAGTCCTAA)”, the “recombinant UMI read abundance (log10)” value is 0.247. With “CGTATACCATGGACCGGTTTTCCCGGTAATCCGTATTTGAA (site CGTATACCTTT)” the figure was 0.0161; with “CGTATGGCATGGACCGGTTTTCCCGGTAATCCGTATTTGTG (site CGTATGGCTCA)”, 1.33. As for “CGTATGTCATGGACCGGTTTTCCCGGTAATCCGTATTTGGT (site CGTATGTCTAC)”, the figure is 1.59; as for “CGTATTCCATGGACCGGTTTTCCCGGTAATCCGTATTTGTG (site CGTATTCCTCA)”, 0.0112; as for “CGTCACTCATGGACCGGTTTTCCCGGTAATCCGTATTTGGC (site CGTCACTCTGC)”, 2.8. Take “CGTCCAACATGGACCGGTTTTCCCGGTAATCCGTATTTGTA (site AGTCCAACTTA)”: the “recombinant UMI read abundance (log10)” value was found to be 0.00336. As for “CGTCCAACATGGACCGGTTTTCCCGGTAATCCGTATTTGTA (site CGTCCAACTTA)”, the figure is 1.61; as for “CGTCCAACATGGACCGGTTTTCCCGGTAATCCGTATTTGTA (site GGTCCAACTTA)”, 0.0127. Consider “CGTCCAACATGGACCGGTTTTCCCGGTAATCCGTATTTGTA (site TGTCCAACTTA)”, for which the “recombinant UMI read abundance (log10)” value was found to be 0.0409. In the case of “CGTCTAGCATGGACCGGTTTTCCCGGTAATCCGTATTTGGC (site CGTCTAGCTGC)”, the “recombinant UMI read abundance (log10)” value stood at 2.07. As for “CGTCTCACATGGACCGGTTTTCCCGGTAATCCGTATTTGGT (site CGTCTCACTAC)”, the figure is 1.62; as for “CGTCTTACATGGACCGGTTTTCCCGGTAATCCGTATTTGTA (site CGTCTTACTTA)”, 0.00853; as for “CGTGGAACATGGACCGGTTTTCCCGGTAATCCGTATTTGCT (site CGTGGAACTAA)”, 0.202. Take “CGTGGAACATGGACCGGTTTTCCCGGTAATCCGTATTTGCT (site CGTGGAACTAC)”: the “recombinant UMI read abundance (log10)” value was 0.00778. With “CGTGGAACATGGACCGGTTTTCCCGGTAATCCGTATTTGCT (site CGTGGAACTAG)” the figure was 2.18; with “CGTGGAACATGGACCGGTTTTCCCGGTAATCCGTATTTGCT (site CGTGGAACTAT)”, 0.45; with “CGTGGAACATGGACCGGTTTTCCCGGTAATCCGTATTTGTA (site CGTGGAACTAA)”, 0.00446. As for “CGTGGAACATGGACCGGTTTTCCCGGTAATCCGTATTTGTA (site CGTGGAACTCA)”, the figure is 0.0215; as for “CGTGGAACATGGACCGGTTTTCCCGGTAATCCGTATTTGTA (site CGTGGAACTGA)”, 0. As for “CGTGGAACATGGACCGGTTTTCCCGGTAATCCGTATTTGTA (site CGTGGAACTTA)”, the figure is 2.24; as for “CGTGTTACATGGACCGGTTTTCCCGGTAATCCGTATTTGAT (site CGTGTTACTAT)”, 0.962. As for “CGTTAAACATGGACCGGTTTTCCCGGTAATCCGTATTTGAG (site CGTTAAACTCT)”, the “recombinant UMI read abundance (log10)” value is 1.31. With “CGTTAAACATGGACCGGTTTTCCCGGTAATCCGTATTTGAG (site CGTTACACTCT)” the figure was 0; with “CGTTAAACATGGACCGGTTTTCCCGGTAATCCGTATTTGAG (site CGTTAGACTCT)”, 0.00692; with “CGTTAAACATGGACCGGTTTTCCCGGTAATCCGTATTTGAG (site CGTTATACTCT)”, 0.01. As to “CGTTAGACATGGACCGGTTTTCCCGGTAATCCGTATTTGAA (site CGTTAGACTAT)”, the “recombinant UMI read abundance (log10)” value stood at 0.0102.
